Measurements taken from PubChem BioAssay (NCI).
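Assay format: 96-well plates, 48-hour exposure. Abbreviation: GI50, concentration required for 50% inhibition of growth. TGI: concentration producing complete growth inhibition.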

Experiments:
Assay in all cases: NCI tumour cell line growth inhibition, 48 h
[1] = test system: 786-0 renal
[2] = test system: A498 renal
[3] = test system: A549 NSCLC
[4] = test system: ACHN renal
[5] = test system: COLO 205 colon
[6] = test system: EKVX NSCLC
[7] = test system: HOP-62 NSCLC
[8] = test system: HT29 colon
[9] = test system: K-562 leukemia
[10] = test system: KM12 colon
[11] = test system: M14 melanoma
[12] = test system: MOLT-4 leukemia
[13] = test system: OVCAR-3 ovarian
[14] = test system: SF-268 CNS
[15] = test system: SK-MEL-5 melanoma
[16] = test system: SK-OV-3 ovarian
[17] = test system: UACC-62 melanoma
[18] = test system: RXF 393 renal
[19] = test system: SR leukemia

Compound | TGI [1] [µM] | TGI [2] [µM] | TGI [3] [µM] | TGI [4] [µM] | TGI [5] [µM] | TGI [6] [µM] | TGI [7] [µM] | TGI [8] [µM] | TGI [9] [µM] | TGI [10] [µM] | TGI [11] [µM] | TGI [12] [µM] | TGI [13] [µM] | TGI [14] [µM] | TGI [15] [µM] | TGI [16] [µM] | TGI [17] [µM] | TGI [18] [µM] | TGI [19] [µM] | GI50 [15] [µM]
CCC1(N=[N+]=[N-])C(=O)Nc2cc(C)ccc2C1=O (stereo unspecified) | > 100 | > 100 | > 100 | 51.2 | > 100 | > 100 | > 100 | > 100 | > 100 | > 100 | > 100 | > 100 | > 100 | > 100 | > 100 | > 100 | > 100 | – | – | –
COc1ccc(OC)c2nc3c(C(=O)NCCN(C)C)cccc3nc12 | > 76.3 | 29.4 | > 34.7 | > 100 | 11.9 | 22.9 | 35.7 | > 44.3 | 23.2 | 22.3 | 15.8 | 17.6 | 42.3 | 27.6 | 14.1 | – | > 49.3 | 23.2 | – | –
O=c1cc(-c2cccc(OC(F)(F)F)c2)[nH]c2cc3c(cc12)OCO3 | 0.75 | 7.75 | > 100 | > 100 | > 32.2 | > 100 | > 47.8 | 26.6 | – | > 100 | > 35.7 | > 100 | 3.92 | > 100 | 0.336 | – | – | > 89.4 | – | –
CC1(O)/C(=N/O)CC2CC1C2(C)C (stereo unspecified) | > 100 | – | > 100 | > 100 | > 100 | – | – | > 100 | > 100 | > 100 | > 100 | > 100 | > 100 | > 100 | > 100 | – | > 100 | > 100 | – | –
CC1N(C)C(=O)OC12CCN(CCCC(=O)c1ccc(F)cc1)CC2 (stereo unspecified) | > 100 | > 100 | > 100 | > 100 | > 100 | – | > 100 | > 100 | > 100 | > 100 | > 100 | > 100 | > 100 | > 100 | > 100 | > 100 | > 100 | > 100 | – | –
CC(C)CCC[C@@H](C)C1CCC2[C@@H]3CCC4CC(CCC=C(c5cc(Cl)c(OC(=O)c6ccccc6)c(C(=O)O)c5)c5cc(Cl)c(OC(=O)c6ccccc6)c(C(=O)O)c5)CC[C@]4(C)C3CC[C@@]21C (stereo partly specified) | 75.2 | > 100 | > 100 | > 100 | > 100 | > 100 | > 100 | > 100 | > 100 | > 100 | 29.3 | > 100 | > 100 | – | 78.8 | > 100 | > 100 | > 100 | – | –
C=C[C@H]1CN2CCc3c([nH]c4c([C@H]5CCCN5C)c(O)ccc34)[C@@H]2C[C@@H]1C[C@H]1c2[nH]c3ccccc3c2CCN1C | 2.77 | – | 3.08 | 3.33 | 2.83 | 3.34 | 3 | 2.75 | – | 2.82 | 2.89 | 5.32 | 3 | 2.97 | – | 3.31 | 3.16 | 2.25 | – | –
O=C1CCC2SC1CCC2=O | > 100 | > 100 | > 100 | > 100 | > 100 | > 100 | > 100 | > 100 | > 100 | > 100 | > 100 | > 100 | > 100 | > 100 | > 100 | > 100 | – | > 100 | – | –
CN(C)CCNc1ccc2c(=O)n(CCN(C)C)c(=O)n3c4ccc(N)cc4c(=O)c1c23 | 1.18 | 2.37 | 0.599 | 0.734 | 1.26 | 0.593 | 1.15 | 0.46 | 0.0358 | 7.52 | 0.449 | 0.161 | 1.22 | 1.25 | 1.37 | 2.7 | 1.21 | 0.263 | – | –
CC1=NN(C(=O)Cc2ccccc2)C(=O)/C1=C\C=C\c1ccccc1 | > 100 | – | > 100 | > 100 | > 100 | > 100 | > 100 | > 100 | > 100 | > 100 | > 100 | > 100 | > 100 | > 100 | > 100 | – | – | – | > 100 | –
[N-]=[N+]=NC1C(Br)C(=O)NC(=O)N1[C@H]1C[C@H](O)[C@@H](CO)O1 (stereo partly specified) | > 100 | > 100 | > 100 | > 100 | > 100 | > 100 | > 100 | > 100 | > 100 | > 100 | > 100 | > 100 | > 100 | > 100 | > 100 | > 100 | > 100 | > 100 | – | 42.2
